Reference: ChEMBL document CHEMBL1201862, “PubChem BioAssay data set” (2004)
The source made the active and inactive calls.

Experiments:
[1] = molecular target: T1, Histone-lysine N-methyltransferase NSD2 (Homo sapiens, UniProt O96028); assay type: biochemical
T1 sequence (O96028 whole entry): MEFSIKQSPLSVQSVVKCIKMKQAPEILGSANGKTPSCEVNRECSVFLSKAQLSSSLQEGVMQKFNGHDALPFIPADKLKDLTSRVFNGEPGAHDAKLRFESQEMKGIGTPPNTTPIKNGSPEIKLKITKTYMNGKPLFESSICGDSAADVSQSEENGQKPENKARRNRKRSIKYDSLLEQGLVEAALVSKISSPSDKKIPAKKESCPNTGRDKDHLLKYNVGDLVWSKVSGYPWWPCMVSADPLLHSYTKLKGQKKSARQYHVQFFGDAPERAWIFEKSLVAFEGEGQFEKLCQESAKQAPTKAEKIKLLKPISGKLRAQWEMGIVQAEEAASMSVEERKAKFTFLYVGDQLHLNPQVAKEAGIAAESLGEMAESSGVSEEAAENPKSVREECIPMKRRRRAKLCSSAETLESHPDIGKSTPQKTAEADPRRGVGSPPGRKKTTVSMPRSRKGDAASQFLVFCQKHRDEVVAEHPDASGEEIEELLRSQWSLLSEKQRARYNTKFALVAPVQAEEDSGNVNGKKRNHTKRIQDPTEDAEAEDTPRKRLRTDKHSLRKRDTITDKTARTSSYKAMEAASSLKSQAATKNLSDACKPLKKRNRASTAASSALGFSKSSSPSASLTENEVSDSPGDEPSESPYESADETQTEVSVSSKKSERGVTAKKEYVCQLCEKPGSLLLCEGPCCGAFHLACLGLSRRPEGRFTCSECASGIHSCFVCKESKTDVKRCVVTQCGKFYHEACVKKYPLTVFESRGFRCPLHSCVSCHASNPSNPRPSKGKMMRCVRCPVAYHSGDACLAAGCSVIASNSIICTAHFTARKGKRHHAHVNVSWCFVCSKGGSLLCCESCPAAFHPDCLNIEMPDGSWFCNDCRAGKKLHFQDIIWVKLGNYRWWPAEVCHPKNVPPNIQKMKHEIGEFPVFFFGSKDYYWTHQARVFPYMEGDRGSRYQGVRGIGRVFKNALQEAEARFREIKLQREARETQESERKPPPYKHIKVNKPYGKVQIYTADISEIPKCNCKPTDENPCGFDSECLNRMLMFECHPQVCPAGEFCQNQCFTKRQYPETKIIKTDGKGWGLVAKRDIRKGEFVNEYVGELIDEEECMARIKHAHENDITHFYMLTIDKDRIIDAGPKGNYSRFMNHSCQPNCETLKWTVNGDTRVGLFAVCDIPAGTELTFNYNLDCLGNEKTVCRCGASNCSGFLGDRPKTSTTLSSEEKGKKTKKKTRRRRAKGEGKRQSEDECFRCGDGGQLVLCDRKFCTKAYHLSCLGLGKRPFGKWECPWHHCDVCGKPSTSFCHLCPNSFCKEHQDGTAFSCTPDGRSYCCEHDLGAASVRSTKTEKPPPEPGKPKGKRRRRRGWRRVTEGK

[2] = molecular target: Serine/threonine-protein phosphatase PP1-alpha catalytic subunit (Homo sapiens, UniProt P62136); test: PP1 phosphatase inhibitors, dose response, biochemical, fluorescence (AID 2394)
[3] = molecular target: Serine/threonine-protein phosphatase (Homo sapiens, UniProt Q9BPW0); test: PP5 phosphatase inhibitors, dose response, biochemical, fluorescence (AID 2395)
Phospholipase A2 = Phospholipase A2 (Homo sapiens, UniProt P04054); assay type: functional;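 also: confirmatory dose-response counterscreen on phospholipase A2, testing hits that came from an ultra-high-throughput screen for ATG4B inhibitors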
[4] = tested on: Streptococcus sp. 'group A'; test: growth inhibition of control SK(-) GAS strain, dose response, counter-screen for streptokinase expression inhibitor project, luminescence, kanamycin, BacTiterGlo, confirmation (AID 1900); assay type: functional, organism-based
[5] = HEp-2 cell cytotoxicity, dose response, cytotoxicity control for RSV inhibitor project, HTS (AID 2410); assay type: functional; details: human respiratory syncytial virus
[6] = molecular target: T2, Sentrin-specific protease 7 (Homo sapiens, UniProt Q9BQF6); test: SENP7 protease inhibitors, SAR follow-up, biochemical, luminescence (AID 504497); assay type: functional
T2 sequence (Q9BQF6 whole entry): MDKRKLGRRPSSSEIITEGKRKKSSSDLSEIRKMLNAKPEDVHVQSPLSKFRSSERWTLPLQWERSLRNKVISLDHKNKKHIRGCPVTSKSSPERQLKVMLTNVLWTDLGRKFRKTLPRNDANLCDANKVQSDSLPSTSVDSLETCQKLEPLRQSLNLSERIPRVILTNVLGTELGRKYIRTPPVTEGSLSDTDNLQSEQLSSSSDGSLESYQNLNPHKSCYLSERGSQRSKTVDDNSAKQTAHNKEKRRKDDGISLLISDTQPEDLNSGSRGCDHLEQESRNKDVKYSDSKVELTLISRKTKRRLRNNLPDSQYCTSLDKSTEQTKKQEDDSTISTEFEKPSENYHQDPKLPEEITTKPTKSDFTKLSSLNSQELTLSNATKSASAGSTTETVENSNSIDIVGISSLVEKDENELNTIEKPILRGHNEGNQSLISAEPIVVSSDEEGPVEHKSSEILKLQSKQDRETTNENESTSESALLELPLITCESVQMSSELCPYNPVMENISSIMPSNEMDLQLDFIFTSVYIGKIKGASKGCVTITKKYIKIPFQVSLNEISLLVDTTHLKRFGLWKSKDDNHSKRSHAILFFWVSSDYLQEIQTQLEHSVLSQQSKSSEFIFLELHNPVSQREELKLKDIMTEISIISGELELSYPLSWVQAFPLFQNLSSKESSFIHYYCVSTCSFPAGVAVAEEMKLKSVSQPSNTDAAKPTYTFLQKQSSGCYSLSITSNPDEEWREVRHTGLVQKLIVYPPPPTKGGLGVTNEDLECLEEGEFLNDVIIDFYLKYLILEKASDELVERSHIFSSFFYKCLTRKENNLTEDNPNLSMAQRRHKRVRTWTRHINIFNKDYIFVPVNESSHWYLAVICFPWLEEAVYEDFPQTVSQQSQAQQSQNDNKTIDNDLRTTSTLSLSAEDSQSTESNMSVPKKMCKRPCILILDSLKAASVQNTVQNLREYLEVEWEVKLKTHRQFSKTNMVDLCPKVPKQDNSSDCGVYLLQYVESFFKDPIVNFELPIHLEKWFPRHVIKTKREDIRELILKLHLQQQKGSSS

BJ = test: cytotoxicity toward BJ-TERT-LT-ST fibroblasts, dose response, cell-based, RAS-independent, luminescence (AID 1935); assay type: functional; details: Homo sapiens;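 also: BJ fibroblasts immortalized with TERT plus LT and ST oncogenes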
[7] = control 3'UTR Renilla luciferase suppression, dose response, counter-screen for Shn3 inhibitor project, cell-based, Clone20-Shn3RL, cherry-picked (AID 624133); assay type: functional
[8] = molecular target: Sphingosine 1-phosphate receptor 4 (Homo sapiens, UniProt O95977); test: Fluorescence dose response cell-based high throughput screening assay for antagonists of the Sphingosine 1-Phosphate Receptor 4 (S1P4). [Related pubchem assays: 1524 (Confirmation in triplicates.), 1510 (Primary screen.)]; assay type: functional
Chain of Sphingosine 1-phosphate receptor 4 (O95977 whole entry): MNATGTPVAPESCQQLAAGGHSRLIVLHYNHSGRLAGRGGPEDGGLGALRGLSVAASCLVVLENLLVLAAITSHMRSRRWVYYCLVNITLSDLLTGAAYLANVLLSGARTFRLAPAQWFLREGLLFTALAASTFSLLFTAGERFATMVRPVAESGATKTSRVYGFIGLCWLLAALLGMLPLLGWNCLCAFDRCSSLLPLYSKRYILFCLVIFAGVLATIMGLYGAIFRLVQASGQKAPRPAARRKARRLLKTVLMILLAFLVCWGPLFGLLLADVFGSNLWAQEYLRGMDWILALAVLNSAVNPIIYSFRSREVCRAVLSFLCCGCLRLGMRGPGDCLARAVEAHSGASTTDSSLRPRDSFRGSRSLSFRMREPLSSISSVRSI

Chain of Serine/threonine-protein phosphatase PP1-alpha catalytic subunit (P62136 whole entry): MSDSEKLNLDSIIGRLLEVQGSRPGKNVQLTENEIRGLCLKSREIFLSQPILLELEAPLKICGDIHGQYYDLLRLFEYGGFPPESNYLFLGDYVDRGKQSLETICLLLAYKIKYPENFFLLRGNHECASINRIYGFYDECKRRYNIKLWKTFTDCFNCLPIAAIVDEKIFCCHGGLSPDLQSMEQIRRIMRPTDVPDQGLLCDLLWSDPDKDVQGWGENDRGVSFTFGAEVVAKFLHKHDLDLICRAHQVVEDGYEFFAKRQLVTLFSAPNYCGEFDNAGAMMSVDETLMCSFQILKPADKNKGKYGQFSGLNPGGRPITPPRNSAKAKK
Chain of Serine/threonine-protein phosphatase (Q9BPW0 whole entry): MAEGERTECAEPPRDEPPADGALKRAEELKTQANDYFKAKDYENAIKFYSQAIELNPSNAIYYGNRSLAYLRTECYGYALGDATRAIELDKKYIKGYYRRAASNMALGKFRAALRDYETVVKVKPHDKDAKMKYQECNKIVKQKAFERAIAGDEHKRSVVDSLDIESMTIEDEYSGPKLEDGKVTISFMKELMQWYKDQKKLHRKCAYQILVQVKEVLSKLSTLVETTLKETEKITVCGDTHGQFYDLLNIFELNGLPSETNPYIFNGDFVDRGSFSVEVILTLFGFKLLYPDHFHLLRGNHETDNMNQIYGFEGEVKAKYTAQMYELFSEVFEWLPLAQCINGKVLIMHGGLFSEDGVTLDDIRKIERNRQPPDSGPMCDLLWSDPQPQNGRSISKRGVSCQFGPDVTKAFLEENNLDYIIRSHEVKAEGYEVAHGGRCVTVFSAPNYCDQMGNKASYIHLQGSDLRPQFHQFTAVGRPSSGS
Chain of Phospholipase A2 (P04054 whole entry): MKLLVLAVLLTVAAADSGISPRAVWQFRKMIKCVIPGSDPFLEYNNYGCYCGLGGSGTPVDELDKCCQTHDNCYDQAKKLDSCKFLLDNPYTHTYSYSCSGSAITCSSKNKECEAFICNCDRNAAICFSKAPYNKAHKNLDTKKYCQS

## CCCCn1c(NC(=O)c2ccco2)c(C(=O)OCC)c2nc3ccccc3nc21
[1]
  AC50: 2.94 µM (active)
[2]
  IC50: 62.5 µM (not active)
[3]
  IC50: 10.3 µM (not active)

## Cc1ccccc1NC1=C/C(=N\S(=O)(=O)c2ccc(C(=O)O)cc2)c2ccccc2C1=O
[1]
  AC50: 0.117 µM (active)
Phospholipase A2
  IC50: 15.4 µM (active)
[4]
  EC50: 1.67 µM (active)

## COc1ccc(-c2cc(-c3ccc(C)cc3)[nH]n2)c(O)c1
[4]
  EC50: 11 µM (active)

## O=C(Nc1ccc(C#Cc2ccccc2)cc1)C1CC1
[5]
  CC50: 26.9 µM (active)
[6]
  IC50: 3.28 µM (active)

## COC(=O)C[C@]1(C(=O)OC)CN(C#N)N(c2ccc(Cl)cc2)C12c1ccccc1-c1ccccc12
BJ
  EC50: 2.78 µM (inconclusive)
[7]
  AC50: 1.67 µM (active)
[8]
  IC50: 0.341 µM (active)
